Measured values as given in the NIST ThermoML archive (doi:10.1021/acs.jced.5b00367).
± gives the expanded uncertainty stated by the source.

Test: wn = mass fraction of the nth substance listed
Conditions: 101 kPa, Liquid, Alternating current cell with electrodes, w2 = 0.01

CCCCCCCCCCCCCCCC[N+](C)(C)C.[Br-] [N,N,N-trimethyl-1-hexadecanaminium bromide] + O
Conditions | electrical conductivity [S/m]
299.55 K | 0.0651 ± 0.026
299.75 K | 0.0653 ± 0.026
299.95 K | 0.0654 ± 0.026
300.25 K | 0.0657 ± 0.026
300.85 K | 0.066 ± 0.026
301.25 K | 0.0662 ± 0.026
301.45 K | 0.0663 ± 0.027
302.05 K | 0.0667 ± 0.027
302.25 K | 0.0668 ± 0.027
302.55 K | 0.067 ± 0.027
302.65 K | 0.0671 ± 0.027
302.85 K | 0.0672 ± 0.027
302.95 K | 0.0666 ± 0.027
303.05 K | 0.0673 ± 0.027
303.15 K | 0.0675 ± 0.027
303.35 K | 0.0676 ± 0.027
303.65 K | 0.0678 ± 0.027
303.85 K | 0.0679 ± 0.027
304.05 K | 0.068 ± 0.027
304.25 K | 0.0682 ± 0.027
304.45 K | 0.0683 ± 0.027
304.55 K | 0.0684 ± 0.027
304.75 K | 0.0685 ± 0.027
304.95 K | 0.0687 ± 0.027
305.15 K | 0.0688 ± 0.028
305.45 K | 0.0689 ± 0.028
305.65 K | 0.0692 ± 0.028
306.25 K | 0.0695 ± 0.028
306.45 K | 0.0696 ± 0.028
306.85 K | 0.0699 ± 0.028
307.05 K | 0.07 ± 0.028
307.35 K | 0.0702 ± 0.028
307.45 K | 0.0703 ± 0.028
307.75 K | 0.0705 ± 0.028
307.95 K | 0.0707 ± 0.028
308.65 K | 0.0712 ± 0.028
308.85 K | 0.0714 ± 0.029
309.05 K | 0.0715 ± 0.029
309.35 K | 0.0712 ± 0.028
309.55 K | 0.0718 ± 0.029
309.75 K | 0.0719 ± 0.029
309.85 K | 0.0721 ± 0.029
310.05 K | 0.0722 ± 0.029
310.25 K | 0.0723 ± 0.029
310.45 K | 0.0724 ± 0.029
310.65 K | 0.0727 ± 0.029
310.85 K | 0.0728 ± 0.029
311.25 K | 0.073 ± 0.029
311.55 K | 0.0732 ± 0.029
311.75 K | 0.0735 ± 0.029
312.05 K | 0.0737 ± 0.029
312.55 K | 0.074 ± 0.03
312.95 K | 0.0744 ± 0.03
313.35 K | 0.0745 ± 0.03
313.55 K | 0.0747 ± 0.03
313.75 K | 0.0748 ± 0.03
313.95 K | 0.075 ± 0.03
314.15 K | 0.0752 ± 0.03
314.35 K | 0.0753 ± 0.03
314.55 K | 0.0755 ± 0.03
314.75 K | 0.0756 ± 0.03
314.95 K | 0.0759 ± 0.03
315.45 K | 0.0761 ± 0.03
315.55 K | 0.0762 ± 0.03
315.75 K | 0.0764 ± 0.031
315.95 K | 0.0765 ± 0.031
316.15 K | 0.0767 ± 0.031
316.35 K | 0.0769 ± 0.031
316.65 K | 0.0771 ± 0.031
317.05 K | 0.0775 ± 0.031
317.15 K | 0.0776 ± 0.031
318.05 K | 0.0778 ± 0.031
318.25 K | 0.0783 ± 0.031
318.45 K | 0.0786 ± 0.031
318.95 K | 0.079 ± 0.032
319.25 K | 0.0792 ± 0.032
319.75 K | 0.0798 ± 0.032
320.25 K | 0.08 ± 0.032
320.35 K | 0.0802 ± 0.032
320.65 K | 0.0816 ± 0.033
321.85 K | 0.0817 ± 0.033
322.05 K | 0.0819 ± 0.033
322.25 K | 0.082 ± 0.033
322.35 K | 0.0823 ± 0.033
322.75 K | 0.0824 ± 0.033
322.85 K | 0.0826 ± 0.033
323.15 K | 0.083 ± 0.033
323.35 K | 0.0832 ± 0.033
323.45 K | 0.0834 ± 0.033
323.65 K | 0.0837 ± 0.033
323.85 K | 0.0839 ± 0.034
324.05 K | 0.0841 ± 0.034
324.35 K | 0.0842 ± 0.034
324.45 K | 0.0843 ± 0.034
324.65 K | 0.0846 ± 0.034
324.75 K | 0.0848 ± 0.034
324.85 K | 0.0849 ± 0.034
325.15 K | 0.0853 ± 0.034
325.35 K | 0.0855 ± 0.034
325.55 K | 0.0856 ± 0.034
325.65 K | 0.0858 ± 0.034
325.85 K | 0.086 ± 0.034
326.15 K | 0.0862 ± 0.034
326.25 K | 0.0863 ± 0.035
326.45 K | 0.0866 ± 0.035
326.55 K | 0.0869 ± 0.035
326.75 K | 0.087 ± 0.035
326.95 K | 0.0871 ± 0.035
327.05 K | 0.0873 ± 0.035
327.55 K | 0.0876 ± 0.035
327.75 K | 0.0876 ± 0.035
333.45 K | 0.0912 ± 0.036
333.65 K | 0.0914 ± 0.037
333.75 K | 0.0915 ± 0.037
334.05 K | 0.0916 ± 0.037
334.35 K | 0.092 ± 0.037
334.75 K | 0.0922 ± 0.037
334.95 K | 0.0924 ± 0.037
335.35 K | 0.0926 ± 0.037
335.55 K | 0.0927 ± 0.037
335.75 K | 0.0929 ± 0.037
335.95 K | 0.093 ± 0.037
336.15 K | 0.0932 ± 0.037
336.55 K | 0.0934 ± 0.037
336.65 K | 0.0935 ± 0.037
336.85 K | 0.0936 ± 0.037
337.05 K | 0.0937 ± 0.037
337.25 K | 0.0939 ± 0.038
337.55 K | 0.0942 ± 0.038
337.75 K | 0.0943 ± 0.038
338.05 K | 0.0945 ± 0.038
338.15 K | 0.0947 ± 0.038
338.55 K | 0.095 ± 0.038
338.75 K | 0.0951 ± 0.038
338.95 K | 0.0952 ± 0.038
339.05 K | 0.0953 ± 0.038
339.15 K | 0.0954 ± 0.038
339.35 K | 0.0955 ± 0.038
339.65 K | 0.0957 ± 0.038
339.85 K | 0.0959 ± 0.038
340.05 K | 0.096 ± 0.038
340.35 K | 0.0962 ± 0.038
340.55 K | 0.0963 ± 0.039
340.65 K | 0.0964 ± 0.039
340.85 K | 0.0966 ± 0.039
341.05 K | 0.0967 ± 0.039
341.15 K | 0.0968 ± 0.039
341.35 K | 0.097 ± 0.039
341.55 K | 0.0971 ± 0.039
341.65 K | 0.0972 ± 0.039
341.85 K | 0.0973 ± 0.039
341.95 K | 0.0974 ± 0.039
342.05 K | 0.0975 ± 0.039
342.25 K | 0.0977 ± 0.039
342.45 K | 0.0979 ± 0.039
342.75 K | 0.098 ± 0.039
342.95 K | 0.0982 ± 0.039
343.05 K | 0.0983 ± 0.039
343.25 K | 0.0987 ± 0.039
343.45 K | 0.0989 ± 0.04
343.75 K | 0.099 ± 0.04
343.95 K | 0.0991 ± 0.04
344.05 K | 0.0993 ± 0.04
344.35 K | 0.0995 ± 0.04
344.55 K | 0.0996 ± 0.04
344.75 K | 0.1 ± 0.04
345.05 K | 0.1 ± 0.04
345.35 K | 0.1 ± 0.04
345.55 K | 0.101 ± 0.04
345.85 K | 0.101 ± 0.04
346.05 K | 0.101 ± 0.04
346.25 K | 0.101 ± 0.041
346.55 K | 0.101 ± 0.041
346.75 K | 0.102 ± 0.041
346.85 K | 0.102 ± 0.041
347.05 K | 0.102 ± 0.041
347.25 K | 0.102 ± 0.041
347.55 K | 0.102 ± 0.041
347.75 K | 0.102 ± 0.041
348.05 K | 0.103 ± 0.041
348.15 K | 0.103 ± 0.041
